Measured values reported in US20110200535A1, “DAA-PYRIDINE AS PERIPHERAL BENZODIAZEPINE RECEPTOR LIGAND FOR DIAGNOSTIC IMAGING AND PHARMACEUTICAL TREATMENT” (BAYER SCHERING PHARMA AKTIENGESELLSCHAFT, priority 2008, published 2011).
Several values for one entry are separate records, joined by “and”; a condition that tells them apart may be missing. Equal values may be shown once.

Tests used:
Format in all cases: in vivo
[1] = Biodistribution of [^18F]-radioactivity in healthy male NMRI mice after intravenous injection (gamma counter); settings: for [^18F]-radioactivity in adrenals / [^18F]-radioactivity in blood / [^18F]-radioactivity in bone / [^18F]-radioactivity in brain (brain uptake) / [^18F]-radioactivity in fat / [^18F]-radioactivity in heart / [^18F]-radioactivity in intestine / [^18F]-radioactivity in kidney / [^18F]-radioactivity in liver / [^18F]-radioactivity in lung / [^18F]-radioactivity in muscle / [^18F]-radioactivity in pancreas / [^18F]-radioactivity in skin / [^18F]-radioactivity in spleen / [^18F]-radioactivity in stomach / [^18F]-radioactivity in testes / [^18F]-radioactivity in thyroid: normal mice, i.v., decay corrected
Procedure: (§1) The biodistribution of [^18F]-2d and [^18F]-5d was investigated in healthy male NMRI mice (28.3-35.6 g body weight, n=3 animals per time point) at 2, 5, 30, 60 and 180/240 min after intravenous injection of 0.264 MBq [^18F]-2d and 0.268 MBq [^18F]-5d per animal, respectively. Until the indicated time points urine and faeces were quantitatively collected. At the respective time points the mice were sacrificed and the tissues were removed. [^18F]-radioactivity was analyzed in a gamma counter (Tab. 1.1, 2.1 and 1.2, 2.2).

[2] = Excretion of [^18F]-radioactivity via urine and faeces in normal mice (gamma counter); settings: i.v., decay corrected
Procedure: as §1

[3] = target: T1, peripheral benzodiazepine receptor (PBR) (Rattus norvegicus, UniProt P16257); assay: Ex vivo autoradiography of brain sections, rat kainic acid induced epilepsy model; settings: for Hipp/Cereb ratio (signal-to-background ratio, hippocampus/cerebellum): rat kainic acid model, 30 min ex vivo autoradiography
T1 construct: from tissue; host or cells: rat brain (hippocampus, cerebellum) after i.v. tracer injection
Procedure: Using a rat kainic acid induced epilepsy model and respective sham controls the accumulation of [^18F]-2d and [^18F]-5d was visualized ex vivo. In brief, epilepsy was induced in rats by injecting kainic acid i.p. At day eight after the start of the kainic acid treatment [^18F]-2d and [^18F]-5d were injected into the tail vein of the rats and their sham treated controls (PBS instead of kainic acid) at a dose of 25.8-35.8 MBq (approximately 1.0 μg) per rat. Thirty minutes after intravenous injection the rats were sacrificed, the brains were taken out, snap frozen and sliced transversally in a cryostat. The slices were exposed to PhosphoImager plates over night. The resulting autoradiographic signals were analyzed qualitatively and quantitatively (FIG. 2.1 A and C, 2.2 A and C). […] To determine the specificity of the [^18F]-2d and [^18F]-5d binding, kainic acid treated rats were co-injected with [^19F]-2e and [^19F]-5e, respectively.
The autoradiographic signals were quantified. The signal intensity in a hippocampal region of interest (ROI) was measured and compared to a ROI in the cerebellum, that was used as reference region.

Question: What does the source list for `COc1ccc(OCC[18F])c(CN(C(C)=O)c2cccnc2Oc2cccc(C)c2C)c1` [[^18F]-5d, N-[2-(2,3-dimethylphenoxy)pyridin-3-yl]-N-[2-(2-[^18F]fluoroethoxy)-5-methoxybenzyl]acetamide]?
Answer: Initial elimination of the radioactivity from the brain ([1]; mice, 30 min p.i.): ca. 73%; Elimination from mouse brain, 2 min/30 min ratio of brain uptake (% ID/g) ([1]; mice, brain, 2 min to 30 min): 3.7; [^18F]-radioactivity in adrenals ([1]; 2 min): 9.90 ± 1.17 % injected dose/g; [^18F]-radioactivity in blood ([1]; 2 min): 2.75 ± 0.40 % injected dose/g; [^18F]-radioactivity in bone ([1]; 2 min): 1.02 ± 0.31 % injected dose/g; [^18F]-radioactivity in brain (brain uptake) ([1]; 2 min): 1.61±0.23 % injected dose/g; [^18F]-radioactivity in fat ([1]; 2 min): 0.24 ± 0.08 % injected dose/g; [^18F]-radioactivity in heart ([1]; 2 min): 17.21 ± 1.43 % injected dose/g; [^18F]-radioactivity in intestine ([1]; 2 min): 0.77 ± 0.24 % injected dose/g; [^18F]-radioactivity in kidney ([1]; 2 min): 6.15 ± 1.95 % injected dose/g; [^18F]-radioactivity in liver ([1]; 2 min): 1.51 ± 0.38 % injected dose/g; [^18F]-radioactivity in lung ([1]; 2 min): 65.87 ± 15.87 % injected dose/g; [^18F]-radioactivity in muscle ([1]; 2 min): 1.23 ± 0.27 % injected dose/g; [^18F]-radioactivity in pancreas ([1]; 2 min): 1.54 ± 0.34 % injected dose/g; [^18F]-radioactivity in skin ([1]; 2 min): 0.52 ± 0.02 % injected dose/g; [^18F]-radioactivity in spleen ([1]; 2 min): 1.40 ± 0.06 % injected dose/g; [^18F]-radioactivity in stomach ([1]; 2 min): 2.03 ± 1.05 % injected dose/g; [^18F]-radioactivity in testes ([1]; 2 min): 0.50 ± 0.01 % injected dose/g; [^18F]-radioactivity in thyroid ([1]; 2 min): 3.97 ± 1.12 % injected dose/g; [^18F]-radioactivity in adrenals ([1]; 5 min): 28.94 ± 11.26 % injected dose/g; [^18F]-radioactivity in blood ([1]; 5 min): 2.13 ± 0.23 % injected dose/g; [^18F]-radioactivity in bone ([1]; 5 min): 1.41 ± 0.19 % injected dose/g; [^18F]-radioactivity in brain (brain uptake) ([1]; 5 min): 1.13 ± 0.22 % injected dose/g; [^18F]-radioactivity in fat ([1]; 5 min): 0.24 ± 0.03 % injected dose/g; [^18F]-radioactivity in heart ([1]; 5 min): 18.45 ± 1.69 % injected dose/g; [^18F]-radioactivity in intestine ([1]; 5 min): 1.42 ± 0.02 % injected dose/g; [^18F]-radioactivity in kidney ([1]; 5 min): 8.53 ± 1.50 % injected dose/g; [^18F]-radioactivity in liver ([1]; 5 min): 2.19 ± 31^ % injected dose/g; [^18F]-radioactivity in lung ([1]; 5 min): 45.38 ± 5.54 % injected dose/g; [^18F]-radioactivity in muscle ([1]; 5 min): 1.89 ± 0.32 % injected dose/g; [^18F]-radioactivity in pancreas ([1]; 5 min): 2.37 ± 0.56 % injected dose/g; [^18F]-radioactivity in skin ([1]; 5 min): 0.79 ± 0.07 % injected dose/g; [^18F]-radioactivity in spleen ([1]; 5 min): 3.25 ± 0.15 % injected dose/g; [^18F]-radioactivity in stomach ([1]; 5 min): 3.04 ± 0.49 % injected dose/g; [^18F]-radioactivity in testes ([1]; 5 min): 0.71 ± 0.10 % injected dose/g; [^18F]-radioactivity in thyroid ([1]; 5 min): 4.25 ± 0.79 % injected dose/g; [^18F]-radioactivity in adrenals ([1]; 30 min): 12.31 ± 0.43 % injected dose/g; [^18F]-radioactivity in blood ([1]; 30 min): 0.80 ± 0.17 % injected dose/g; [^18F]-radioactivity in bone ([1]; 30 min): 2.05 ± 0.08 % injected dose/g; [^18F]-radioactivity in brain (brain uptake) ([1]; 30 min): 0.44±0.15 % injected dose/g and 0.44 ± 0.51 % injected dose/g; [^18F]-radioactivity in fat ([1]; 30 min): 0.61 ± 0.26 % injected dose/g; [^18F]-radioactivity in heart ([1]; 30 min): 7.53 ± 2.41 % injected dose/g; [^18F]-radioactivity in intestine ([1]; 30 min): 2.48 ± 0.78 % injected dose/g; [^18F]-radioactivity in kidney ([1]; 30 min): 9.53 ± 0.82 % injected dose/g; [^18F]-radioactivity in liver ([1]; 30 min): 3.52 ± 1.35 % injected dose/g; [^18F]-radioactivity in lung ([1]; 30 min): 9.83 ± 1.66 % injected dose/g; [^18F]-radioactivity in muscle ([1]; 30 min): 2.14 ± 0.31 % injected dose/g; [^18F]-radioactivity in pancreas ([1]; 30 min): 2.46 ± 0.19 % injected dose/g; [^18F]-radioactivity in skin ([1]; 30 min): 1.23 ± 0.21 % injected dose/g; [^18F]-radioactivity in spleen ([1]; 30 min): 5.68 ± 0.59 % injected dose/g; [^18F]-radioactivity in stomach ([1]; 30 min): 3.01 ± 0.70 % injected dose/g; [^18F]-radioactivity in testes ([1]; 30 min): 0.75 ± 0.19 % injected dose/g; [^18F]-radioactivity in thyroid ([1]; 30 min): 3.81 ± 0.42 % injected dose/g; [^18F]-radioactivity in adrenals ([1]; 60 min): 16.66 ± 2.86 % injected dose/g; [^18F]-radioactivity in blood ([1]; 60 min): 0.75 ± 0.01 % injected dose/g; [^18F]-radioactivity in bone ([1]; 60 min): 1.69 ± 0.26 % injected dose/g; [^18F]-radioactivity in brain (brain uptake) ([1]; 60 min): 0.34 ± 0.06 % injected dose/g; [^18F]-radioactivity in fat ([1]; 60 min): 3.27 ± 0.30 % injected dose/g; [^18F]-radioactivity in heart ([1]; 60 min): 5.76 ± 0.87 % injected dose/g; [^18F]-radioactivity in intestine ([1]; 60 min): 3.31 ± 0.16 % injected dose/g; [^18F]-radioactivity in kidney ([1]; 60 min): 9.57 ± 0.76 % injected dose/g; [^18F]-radioactivity in liver ([1]; 60 min): 2.35 ± 0.35 % injected dose/g; [^18F]-radioactivity in lung ([1]; 60 min): 6.46 ± 1.07 % injected dose/g; [^18F]-radioactivity in muscle ([1]; 60 min): 2.13 ± 0.21 % injected dose/g; [^18F]-radioactivity in pancreas ([1]; 60 min): 2.34 ± 0.48 % injected dose/g; [^18F]-radioactivity in skin ([1]; 60 min): 1.39 ± 0.10 % injected dose/g; [^18F]-radioactivity in spleen ([1]; 60 min): 5.79 ± 0.10 % injected dose/g; [^18F]-radioactivity in stomach ([1]; 60 min): 4.21 ± 0.25 % injected dose/g; [^18F]-radioactivity in testes ([1]; 60 min): 0.90 ± 0.10 % injected dose/g; [^18F]-radioactivity in thyroid ([1]; 60 min): 3.21 ± 0.75 % injected dose/g; [^18F]-radioactivity in adrenals ([1]; 240 min): 13.93 ± 6.07 % injected dose/g; [^18F]-radioactivity in blood ([1]; 240 min): 0.60 ± 0.07 % injected dose/g; [^18F]-radioactivity in bone ([1]; 240 min): 2.6 % injected dose/g and 2.59 ± 0.56 % injected dose/g; [^18F]-radioactivity in brain (brain uptake) ([1]; 240 min): 0.32 ± 0.08 % injected dose/g; [^18F]-radioactivity in fat ([1]; 240 min): 0.86 ± 0.10 % injected dose/g; [^18F]-radioactivity in heart ([1]; 240 min): 2.21 ± 0.24 % injected dose/g; [^18F]-radioactivity in intestine ([1]; 240 min): 3.96 ± 0.16 % injected dose/g; [^18F]-radioactivity in kidney ([1]; 240 min): 6.84 ± 0.69 % injected dose/g; [^18F]-radioactivity in liver ([1]; 240 min): 1.76 ± 0.23 % injected dose/g; [^18F]-radioactivity in lung ([1]; 240 min): 3.42 ± 0.73 % injected dose/g; [^18F]-radioactivity in muscle ([1]; 240 min): 1.32 ± 0.11 % injected dose/g; [^18F]-radioactivity in pancreas ([1]; 240 min): 1.41 ± 0.22 % injected dose/g; [^18F]-radioactivity in skin ([1]; 240 min): 1.47 ± 0.06 % injected dose/g; [^18F]-radioactivity in spleen ([1]; 240 min): 3.02 ± 0.25 % injected dose/g; [^18F]-radioactivity in stomach ([1]; 240 min): 3.43 ± 0.54 % injected dose/g; [^18F]-radioactivity in testes ([1]; 240 min): 0.94 ± 0.12 % injected dose/g; [^18F]-radioactivity in thyroid ([1]; 240 min): 2.50 ± 0.15 % injected dose/g; Excretion of [^18F]-radioactivity via faeces ([2]; 2 min): 0.00 ± 0.00 % injected dose; Excretion of [^18F]-radioactivity via urine ([2]; 2 min): 0.02 ± 0.02 % injected dose; Excretion of [^18F]-radioactivity via faeces ([2]; 5 min): 0.00 ± 0.00 % injected dose; Excretion of [^18F]-radioactivity via urine ([2]; 5 min): 0.04 ± 0.00 % injected dose; Excretion of [^18F]-radioactivity via faeces ([2]; 30 min): 0.03 ± 0.02 % injected dose; Excretion of [^18F]-radioactivity via urine ([2]; 30 min): 2.33 ± 1.20 % injected dose; Excretion of [^18F]-radioactivity via faeces ([2]; 60 min): 0.04 ± 0.02 % injected dose; Excretion of [^18F]-radioactivity via urine ([2]; 60 min): 4.21 ± 0.97 % injected dose; Excretion of [^18F]-radioactivity via faeces ([2]; 240 min): 0.74±1.01 % injected dose; Excretion of [^18F]-radioactivity via urine ([2]; 240 min): 15.24±1.25 % injected dose; Specificity of binding: autoradiographic signal on co-injection of the corresponding [^19F] compound ([3]; kainic acid treated rats, co-injected with [^19F]-2e and [^19F]-5e, respectively): significantly reduced autoradiographic signal; Hipp/Cereb ratio (signal-to-background ratio, hippocampus/cerebellum) [3]: 3.0 ± 0.9; Hipp/Cereb ratio (signal-to-background ratio, hippocampus/cerebellum) ([3]; listed as 5d): 3.0±0.9
